The assay deals with 855422-203-R-J1-PDC complex spheroid viability. Briefly: Anticancer human tumor 855422-203-R-J1-PDC patient-derived bladder carcinoma cell line growth inhibition [POLQ]. As to conditions: for viability, T/C: stronger effect = lower value. The procedure:
Multicellular complex tumor spheroid response to Polymerase (POL) inhibitors (novobiocin, ART-558, RP6685) in combination with a variety of drugs and investigational agents in selected tumor cell lines
The POL inhibitors (novobiocin, ART-558, and RP6685) were evaluated both individually and in combination with standard of care and investigational anticancer small molecules within a complex spheroid model of solid tumors. . Complex spheroids include a stromal component modeled by human endothelial cells (HUVEC) and fibroblasts modeled by human mesenchymal stem cells (MSCs). The concentration ranges selected for each drug and investigational agent were based upon clinically achievable concentrations if the clinical Cmax of the agent was known.
Compounds. The drugs and investigational agents: novobiocin (NSC847541), ART-558 (NSC835418), RP-6685 (NSC848927), peposertib (NSC802822), ceralasertib (NSC780249), elimusertib (NSC800525), camonsertib (NSC841442), AZD-1390 (NSC803789), olaparib (NSC753686), talazoparib (NSC767125), rucaparib (NSC756644), sotorasib (NSC818433), MRTX-1133 (NSC836407), SN-38 (NSC673596), topotecan (NSC609699), epotoside (NSC141540), doxorubicin (NSC123127), gemcitabine (NSC613327), 5-fluorouracil (NSC19893), paclitaxel (NSC125973), vemurafenib (NSC761431), MSA-2 (NSC828583), SN-011 (NSC837082), adavosertib (NSC754352), prexasertib (NSC758257), carboplatin (NSC241240) and oxaliplatin (NSC266046), were obtained from the National Cancer Institute (NCI) Developmental Therapeutics Program Chemical Repository (21). The FDA-approved anticancer drug set is available from the Developmental Therapeutics Program at https://dtp.cancer.gov/organization/dscb/obtaining/. […] The stock solutions were prepared in dimethyl sulfoxide (DMSO, Sigma-Aldrich, St. Louis, MO, cat. D2650), except for the platinum compounds which were prepared in saline (Quality Biological, Gaithersburg, MD, cat. 114-055-101), at 800-fold the tested concentration and stored at -70 degrees C prior to their use. All drugs and investigational agents were tested over a range starting from a high concentration at or near the clinical Cmax and decreasing in half-log increments. If the clinical Cmax for an agent had not been determined, the highest concentration tested was 10 microM, except for SN-38, which was tested at a high concentration of 1 microM.
Cell Culture. All cells were maintained in an incubator at 37 degrees C and 5% CO2 with 95% humidity. The PDC lines were cultured according to standard operating procedures established by the NCI PDMR (https://pdmr.cancer.gov). Table 3 of the manuscript, lists the cell lines along with the number of the three cell types plated to form the mct-spheroids and media for tumor cell growth. After thawing, all PDC lines, except 997537-175-T-J1-PDC and 415267-285-R-J2-PDC, were cultured in Matrigel-coated flasks prepared with a working solution of 1X Ham's F-12 nutrient mix, without supplementation (Thermo Fisher Scientific, cat. 11765054), 100 U/mL penicillin-streptomycin (Thermo Fisher Scientific, cat. 15140122), and 2.5% Matrigel (Corning Inc., Corning, NY, cat. 354248) for the first three passages. The two PDC lines 997537-175-T-J1-PDC and 415267-285-R-J2-PDC were cultured on uncoated flasks. The 857933-349-R-J2-PDC line was cultured in 6C/Colon 1B media containing advanced DMEM/F-12 (Thermo Fisher Scientific, cat. 12634028), 10 mM HEPES (Thermo Fisher Scientific, cat. 15630080), 1X GlutaMAX supplement (Thermo Fisher Scientific, cat. 35050061), 0.1 mg/mL primocin (InvivoGen, San Diego, CA, cat. ant-pm-2), 10% defined fetal bovine serum, heat inactivated (HyClone Laboratories Inc., Logan, UT, cat. SH30070.03HI), 50% L-WRN conditioned media (ATCC, cat. CRL-3276), 1.25 mM N-Acetyl-L-cysteine (Sigma-Aldrich, cat. A9165), 10 mM nicotinamide (Sigma-Aldrich, cat. N0636), 1X B-27 supplement (Thermo Fisher Scientific, cat. 17504044), 1X N-2 supplement (Thermo Fisher Scientific, cat. […]

The mark [1] stands for this setting: compound alone, run of 01/19/2024.

Several values for one entry are separate records, joined by “and”; a condition that tells them apart may be missing. Identical values can stand only once. Where only a bound is given, the exact number is not on record here.
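Further: spheroids exposed to compounds for seven days before readout.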

For the compound `COc1cc(C2c3cc4c(cc3C(OC3OC5COC(C)OC5C(O)C3O)C3COC(=O)C23)OCO4)cc(OC)c1O` (centres undefined), the viability, T/C is, setting by setting: (compound 0.0316 µM) 99.8% and 116% and 97.3%; (compound 0.1 µM) 92.7% and 114% and 91%; (compound 0.316 µM) 31.5% and 78.4% and 34%; (compound 1 µM) 9.39% and 19.9% and 12.1%; (compound 3.16 µM) 7.03% and 8.72% and 9.59%; (compound 10 µM) 4.41% and 6.81% and 5.26%. In addition, the IC50 (curve of compound) is 224 nM and 553 nM and 229 nM.
`COc1ccc([C@@H](O)c2cc(-c3ncnc4cc(N5CCOCC5)ccc34)c(F)cc2Cl)nn1`: the viability, T/C (compound 0.0316 µM) was 86.6% and 104% and 118%; the viability, T/C (compound 0.1 µM) was 103% and 107% and 96.5%; the viability, T/C (compound 0.316 µM) was 94.5% and 103% and 109%; the viability, T/C (compound 1 µM) is 87.2% and 91.5% and 88.8%; the viability, T/C (compound 3.16 µM) was 60.9% and 109% and 69.5%; the viability, T/C (compound 10 µM) was 32% and 58.2% and 37.4%. Moreover, the IC50 (curve of compound) is 4870 nM and > 10000 nM and 6350 nM.
For the compound `COc1cccc(OCCCN)c1-c1cc(Nc2cnc(C#N)cn2)n[nH]1`, the viability, T/C runs as follows: (compound 0.00316 µM) 108% and 98.1% and 104%; (compound 0.01 µM) 86.8% and 138% and 132%; (compound 0.0316 µM) 12.2% and 23.8% and 37.9%; (compound 0.1 µM) 9.96% and 13.6% and 17.5%; (compound 0.316 µM) 5.57% and 7.75% and 6.55%; (compound 1 µM) 4.87% and 6.23% and 5.82%. Moreover, the IC50 (curve of compound) was 17.7 nM and 23 nM and 26.6 nM.
Turning to `COc1cccc2c1C(=O)c1c(O)c3c(c(O)c1C2=O)CC(O)(C(=O)CO)CC3OC1CC(N)C(O)C(C)O1` (centres undefined), the viability, T/C is 20.9% and 28.2% and 13.1% (compound 0.0316 µM); 9.22% and 14.2% and 10.2% (compound 0.1 µM); 3.11% and 2.95% and 2.47% (compound 0.316 µM); 0.45% and 0.73% and 0.38% (compound 1 µM); 0.69% and 0.96% and 0.43% (compound 3.16 µM); 3.06% and 2.86% and 1.27% (compound 10 µM). The IC50 (curve of compound) is < 31.6 nM.
Consider `Cc1cccc(N(C)C(=O)C2C(O)CCN2c2nc(C)cc(C(F)(F)F)c2C#N)c1` (centres undefined), for which the viability, T/C was 107% [middle of 13 runs] (compound 0.0316 µM); 106% [middle of 13 runs] (compound 0.316 µM); 102% [middle of 13 runs] (compound 1 µM); 102% [middle of 13 runs] (compound 3.16 µM); 103% [middle of 13 runs] (compound 10 µM). Besides, the IC50 runs as follows: (compound alone, run of 01/08/2024) > 10000 nM; under setting [1], > 10000 nM.
`Cn1ncnc1[C@H]1c2n[nH]c(=O)c3cc(F)cc(c23)N[C@@H]1c1ccc(F)cc1`: the viability, T/C runs as follows: (compound 0.000316 µM) 108% and 99.8% and 105%; (compound 0.001 µM) 97% and 116% and 97.1%; (compound 0.00316 µM) 108% and 105% and 111%; (compound 0.01 µM) 108% and 122% and 110%; (compound 0.0316 µM) 102% and 93.4% and 118%; (compound 0.1 µM) 96.6% and 134% and 88.6%. Moreover, under “curve of compound”, the IC50 was > 100 nM.
Consider `Nc1ccc(C#CCN(C(=O)Cc2ncc(C(F)(F)F)cc2C(F)(F)F)c2ccc(F)cc2)nn1`, for which the viability, T/C runs as follows: (compound 0.0316 µM) 101% [middle of 13 runs]; (compound 0.1 µM) 104% [middle of 13 runs]; (compound 0.316 µM) 107% [middle of 13 runs]; (compound 3.16 µM) 95.7% [middle of 13 runs]; (compound 10 µM) 90.4% [middle of 13 runs]. In addition, the IC50 under setting [1] is > 10000 nM.
In the case of `Nc1ccn(C2OC(CO)C(O)C2(F)F)c(=O)n1` (centres undefined), the viability, T/C reads like this: (compound 0.0316 µM) 81.1% and 75.1% and 69.6%; (compound 0.1 µM) 41.7% and 19.3% and 37.9%; (compound 0.316 µM) 17.7% and 14.3% and 12.9%; (compound 1 µM) 13.3% and 13.5% and 11.3%; (compound 3.16 µM) 7.69% and 9.12% and 7.82%; (compound 10 µM) 6.31% and 7.6% and 6.51%. Further, the IC50 (curve of compound) is 77.7 nM and 53.1 nM and 64.2 nM.
For `O=C(c1cc(Cc2n[nH]c(=O)c3ccccc23)ccc1F)N1CCN(C(=O)C2CC2)CC1`, the viability, T/C reads like this: (compound 0.0316 µM) 109% and 103% and 94%; (compound 0.1 µM) 107% and 106% and 112%; (compound 0.316 µM) 92.1% and 100% and 112%; (compound 1 µM) 108% and 103% and 98.3%; (compound 3.16 µM) 106% and 98.1% and 124%; (compound 10 µM) 82.5% and 70% and 121%. The IC50 (curve of compound) is > 10000 nM.
In the case of `O=c1[nH]cc(F)c(=O)[nH]1`, the viability, T/C is 116% and 95.4% and 99.2% (compound 0.0316 µM); 105% and 104% and 102% (compound 0.1 µM); 61.8% and 118% and 55.4% (compound 0.316 µM); 32.8% and 67% and 34.3% (compound 1 µM); 29.6% and 40.2% and 26.3% (compound 3.16 µM); 23.3% and 44.2% and 22.9% (compound 10 µM). The IC50 (curve of compound) is 507 nM and 2200 nM and 405 nM.

A word on the viability, T/C: it is the ratio of treated to control. By IC50 is commonly meant the concentration that gives 50% inhibition.

Values taken from PubChem BioAssay AID1963838 (Molecular Pharmacology Branch, DTP, NCI, 2024).
